According to publication PMC6691788, “Design and synthesis of phthalazine-based compounds as potent anticancer agents with potential antiangiogenic activity via VEGFR-2 inhibition” (Journal of Enzyme Inhibition and Medicinal Chemistry, 2019):
Where two headings read alike, the source gives them in different places.

Columns and labels:
full NCI 60 cell panel = assay: NCI 60 cell panel SRB screen, whole panel; type: cell-based, human; conditions: for activity at 10 µM / inhibition at 10 µM: Homo sapiens, 60 cell; for activity at 10 µM: mean over the panel, single dose 10 μM, read-out: Mean percent cell growth promotion; for cell growth inhibition, in words / inhibition at 10 µM: single dose 10 µM
From the text: Aiming to evaluate the general antitumour activity of the synthesised phthalazines, the structures of the final compounds were submitted to National Cancer Institute “NCI” (www.dtp.nci.nih.gov), Bethesda, Maryland, USA. In vitro NCI anticancer screening involves two-stage process, the first stage started with the evaluation of the selected candidates against the full NCI 60 cell lines panel representing leukaemia, non-small cell lung cancer, melanoma, colon, CNS, breast, ovarian, renal and prostate cancers at a single dose of 10 µM. NCI selection is based on degree of structure variation and application of computer modelling techniques to prioritise compounds based on their ability to add diversity to the NCI small molecule compound collection.
Eight compounds (6b, 6e, 7b, 13a, 13c, 16a, 16d and 17a) were selected by NCI for further 5 log dose screening against full NCI 60 cell panel. All the 60 cell lines, representing nine tumour subpanels (leukaemia, non-small cell lung cancer, colon cancer, CNS cancer, prostate cancer, melanoma, ovarian cancer, renal cancer and breast cancer) which were incubated at five different concentrations (0.01, 0.1, 1, 10 and 100 µM) of each of the test compounds. The outcomes were used to create log concentration vs % growth inhibition curves, then three response parameters (GI50, TGI and LC50) were calculated for each cell line, (Tables S4 and S5 in Supplementary material).
The human tumor cell lines of the cancer-screening panel were grown in RPMI 1640 medium containing 5% fetal bovine serum and […] L-glutamine. For a typical screening experiment, cells are inoculated into 96 well microtiter plates in 100 ml at plating densities ranging from 5000 to 40,000 cells/well depending on the doubling time of individual cell lines. After cell inoculation, the microtiter plates are incubated at 37 °C, 5% CO2, 95% air and 100%
relative humidity for 24 h prior to addition of experimental drugs. After 24 h, two plates of each cell line are fixed in situ with TCA, to represent a measurement of the cell population for each cell line at the time of drug addition (Tz). Experimental drugs are dissolved in dimethyl sulfoxide at 400-fold the desired final maximum test concentration and stored frozen prior to use. At the time of drug addition, an aliquot of frozen concentrate is thawed and diluted to twice the desired final maximum test concentration with complete medium containing […] Gentamicin. Additional four, 10-fold or ½log serial dilutions are made to provide a total of five drug concentrations plus control. Aliquots of […] of these different drug dilutions are added to the appropriate microtiter wells already containing 100 ml of medium, resulting in the required final drug concentrations. Following drug addition, the plates are incubated for an additional 48 h at 37 °C, 5% CO2, 95% air, and 100% relative humidity. For adherent cells, the assay is terminated by the addition of cold TCA. Cells are fixed in situ by the gentle addition of […] of cold 50% (w/v) TCA (final concentration,10% TCA) and incubated for 60 min at 4 °C. The supernatant is discarded, and the plates are washed five times with tap water and air dried. Sulforhodamine B (SRB) solution (100 ml) at 0.4% (w/v) in 1% acetic acid is added to each well, and plates are incubated for 10 min at room temperature. After staining, unbound dye is removed by washing five times with 1% acetic acid and the plates are air dried. Bound stain is subsequently dissolved with 10 μM trizma base, and the absorbance is read on an automated plate reader at a wavelength of 515 nm. For suspension cells, the methodology is the same except that the assay is terminated by fixing settled cells at the bottom of the wells by gently adding […] of 80% TCA (final concentration, 16% TCA). […]

DU-145 = assay: NCI 60 cell panel SRB screen; type: cell-based; conditions: Homo sapiens; for activity at 10 µM: DU-145, single dose 10 μM, read-out: percent cell growth promotion; for GI50 / IC (TGI) / CC50: DU-145, 5 log dose; for CC50: 48 h, read-out: LC50 (the source's name)
COLO 205 = assay: NCI 60 cell panel SRB screen; type: cell-based; conditions: Homo sapiens; for activity at 10 µM: COLO 205, single dose 10 μM, read-out: percent cell growth promotion; for GI50 / IC (TGI) / CC50: COLO 205, 5 log dose; for CC50: 48 h, read-out: LC50 (the source's name)
TK-10 = assay: NCI 60 cell panel SRB screen; type: cell-based, human; conditions: for activity at 10 µM / GI50 / CC50: Homo sapiens; for activity at 10 µM: TK-10, single dose 10 μM, read-out: percent cell growth promotion; for GI50 / CC50 / TGI: TK-10, 5 log dose; for CC50: 48 h, read-out: LC50 (the source's name)
M14 = assay: NCI 60 cell panel SRB screen; type: cell-based; conditions: Homo sapiens; for activity at 10 µM: M14, read-out: percent cell growth promotion; for GI50: M14; for IC (TGI): M14, read-out: TGI; for CC50: M14, 5 log dose, 48 h, read-out: LC50 (the source's name)
NCI-H522 = assay: NCI 60 cell panel SRB screen; type: cell-based; conditions: Homo sapiens; for activity at 10 µM: NCI-H522, single dose 10 μM, read-out: percent cell growth promotion; for GI50 / IC (TGI) / CC50: NCI-H522, 5 log dose; for CC50: 48 h, read-out: LC50 (the source's name)
[1] = read-out: cell growth inhibition against various cell lines

| Compound | activity at 10 µM (full NCI 60 cell panel) | cell growth inhibition, in words (full NCI 60 cell panel) | activity at 10 µM (DU-145) | activity at 10 µM (COLO 205) | activity at 10 µM (TK-10) | activity at 10 µM (M14) | activity at 10 µM (NCI-H522) | other results |
| --- | --- | --- | --- | --- | --- | --- | --- | --- |
| O=C(Nc1ccc(Nc2nncc3ccccc23)cc1)c1ccc(Cl)cc1 [Compound 5b, 4-Chloro-N-(4-(phthalazin-1-ylamino)phenyl)benzamide] | 101% | Neither of the biarylamides (5b, and 5d) nor the piperazines (8a, 8d, 8f, 8g, 8h and 8i) showed any significant cell line growth inhibition | 114% | 104% | 116% | 99.7% | 96.8% | – |
| Cc1nnc(Nc2ccc(NC(=O)c3ccc(Cl)cc3)cc2)c2ccccc12 [Compound 5d, 4-Chloro-N-(4–(4-methylphthalazin-1-ylamino)phenyl)benzamide] | 93% | Neither of the biarylamides (5b, and 5d) nor the piperazines (8a, 8d, 8f, 8g, 8h and 8i) showed any significant cell line growth inhibition | 102% | 90.3% | 109% | 97.1% | 94.7% | – |
| O=C(Nc1ccc(Cl)cc1)Nc1ccc(Nc2nncc3ccccc23)cc1 [Compound 6b, 1–(4-Chlorophenyl)-3–(4-(phthalazin-1-ylamino)phenyl)urea] | 25% | – | 33.7% | 18.6% | 32% | 19.3% | 11.9% | inhibition at 10 µM (full NCI 60 cell panel; [1]): > 90%; GI50 (DU-145): 3.17 µM; IC (TGI) (DU-145): 26.9 µM; CC50 (DU-145): > 100 µM; GI50 (COLO 205): 2.77 µM; IC (TGI) (COLO 205): 9.58 µM; CC50 (COLO 205): 34.6 µM; GI50 (TK-10): 5.03 µM; CC50 (TK-10): > 100 µM; TGI (TK-10): 24.4 µM; GI50 (M14): 1.52 µM; IC (TGI) (M14): 11.5 µM; CC50 (M14): 40.7 µM; GI50 (NCI-H522): 1.32 µM; IC (TGI) (NCI-H522): 8.81 µM; CC50 (NCI-H522): 43.2 µM |
| Cc1nnc(Nc2ccc(NC(=O)Nc3ccc(Cl)cc3)cc2)c2ccccc12 [Compound 6e, 1–(4-Chlorophenyl)-3–(4-(4-methylphthalazin-1-ylamino)phenyl)urea] | 23.2% | lethal effect (above 100% inhibition) against several leukaemia, melanoma, renal cancer cell lines | 57.8% | 28.2% | 51.7% | 37.3% | 30.3% | inhibition at 10 µM (full NCI 60 cell panel; [1]): > 90%; GI50 (DU-145): 4.77 µM; IC (TGI) (DU-145): 19.5 µM; CC50 (DU-145): 66.9 µM; GI50 (COLO 205): 2.22 µM; IC (TGI) (COLO 205): 5.29 µM; CC50 (COLO 205): 19.2 µM; GI50 (TK-10): 3.19 µM; CC50 (TK-10): 33.7 µM; TGI (TK-10): 9.42 µM; GI50 (M14): 1.76 µM; IC (TGI) (M14): 3.57 µM; CC50 (M14): 7.27 µM; GI50 (NCI-H522): 1.84 µM; IC (TGI) (NCI-H522): 3.88 µM; CC50 (NCI-H522): 8.21 µM |
| O=C(Nc1ccc(Cl)cc1)Nc1ccc(Oc2nncc3ccccc23)cc1 [Compound 7b, 1–(4-Chlorophenyl)-3–(4-(phthalazin-1-yloxy)phenyl)urea] | -6.99% | – | 11.2% | 11.9% | 27.5% | 7.3% | -46.4% | inhibition at 10 µM (full NCI 60 cell panel; full panel, read-out: mean growth inhibition): 107%; GI50 (DU-145): 0.73 µM; IC (TGI) (DU-145): 2.08 µM; CC50 (DU-145): 4.88 µM; GI50 (COLO 205): 1.18 µM; IC (TGI) (COLO 205): 2.92 µM; CC50 (COLO 205): 7.21 µM; GI50 (TK-10): 2.12 µM; CC50 (TK-10): 8.64 µM; TGI (TK-10): 4.28 µM; GI50 (M14): 1.12 µM; IC (TGI) (M14): 3.16 µM; CC50 (M14): 8.93 µM; GI50 (NCI-H522): 0.19 µM; IC (TGI) (NCI-H522): 0.41 µM; CC50 (NCI-H522): 0.91 µM |
| Cc1nnc(Oc2ccc(NC(=O)Nc3ccc(Cl)cc3)cc2)c2ccccc12 [Compound 7e, 1–(4-Chlorophenyl)-3–(4-(4-methylphthalazin-1-yloxy)phenyl)urea] | 72.8% | moderate cell growth inhibition against leukaemia and breast cell lines | 81.4% | 87.4% | 84.8% | 79.4% | 63.8% | – |
| CCOC(=O)N1CCN(c2nncc3ccccc23)CC1 [Compound 8a, Ethyl 4-(phthalazin-1-yl)piperazine-1-carboxylate] | 105% | nor the piperazines (8a, 8d, 8f, 8g, 8h and 8i) showed any significant cell line growth inhibition | 104% | 109% | 110% | 110% | 99.8% | – |
| c1ccc(N2CCN(c3nncc4ccccc34)CC2)nc1 [Compound 8d, 1–(4-(Pyridin-2-yl)piperazin-1-yl)phthalazine] | 104% | nor the piperazines (8a, 8d, 8f, 8g, 8h and 8i) showed any significant cell line growth inhibition | 99% | 106% | 105% | 102% | 99.4% | – |
| CCOC(=O)N1CCN(c2nnc(C)c3ccccc23)CC1 [Compound 8f, Ethyl 4–(4-methylphthalazin-1-yl)piperazine-1-carboxylate] | 101% | nor the piperazines (8a, 8d, 8f, 8g, 8h and 8i) showed any significant cell line growth inhibition | 100% | 109% | 90.6% | 104% | 93.8% | – |
| Cc1nnc(N2CCN(c3ccccc3)CC2)c2ccccc12 [Compound 8g, 1-Methyl-4–(4-phenylpiperazin-1-yl)phthalazine] | 102% | nor the piperazines (8a, 8d, 8f, 8g, 8h and 8i) showed any significant cell line growth inhibition | 111% | 97.7% | 97.2% | 94.8% | 94.5% | – |
| Cc1nnc(N2CCN(c3ccccc3F)CC2)c2ccccc12 [Compound 8h, 1–(4-(2-Fluorophenyl)piperazin-1-yl)-4-methylphthalazine] | 99% | nor the piperazines (8a, 8d, 8f, 8g, 8h and 8i) showed any significant cell line growth inhibition | 107% | 120% | 88.7% | 95% | 89% | – |
| Cc1nnc(N2CCN(c3ccccn3)CC2)c2ccccc12 [Compound 8i, 1-Methyl-4–(4-(pyridin-2-yl)piperazin-1-yl)phthalazine] | 101% | nor the piperazines (8a, 8d, 8f, 8g, 8h and 8i) showed any significant cell line growth inhibition | 111% | 113% | 83.2% | 98.6% | 94.5% | – |
